Experimental data from US9180183B2, “Phospholipid drug analogs” (Telormedix SA, priority 2010, dated 2015).
“And” between values parts separate entries of the source, which are not always exact repeats. Equal values may be shown once.

What was measured:
[1] = tested on: HLA-DR+/CD11c+/CD123- mDCs; test: FACS analysis of myeloid DC activation in whole blood; type: cell-based, human; conditions: 24 hours; 0.1 and 0.5 uM; three donors
Experimental: The FACS analysis for donor 1 and donor 2 was made on another day than donor 3. The compound concentrations were as follows:
The FACS analysis was used to identify whether the test compounds could induce activation of B cells, and two different subsets of dendritic cells, namely the myeloid CD11c+/CD123− DCs and the plasmacytoid CD11c−/CD123+ DCs. The following markers were studied to identify the activation status of the different subsets:
The FACS staining was performed according to the manufacturer's instructions. Lysis of red blood cells was performed before FACS staining in order to minimize auto-florescence. To include as many B cells and DCs in the study as possible the FACS analyses were performed on 500,000 cells in total for each staining. A P1 gate was set only to include relevant cells on FSC vs. SSC (see FIGS. 12-15). The results of the individual analysis were present as Mean Fluorescence Intensity
The analysis of myeloid DCs was based on HLA-DR+/CD11c+/CD123−cells, thus all analyzed cells was included in the HLA-DR+ (P3) gate and CD11c+/CD123− (Q4) gate (see gates in FIGS. 13-15).

[2] = tested on: recombinant protein antigens from Plasmodium falciparum and Mycobacterium ulcerans; test: Pilot immunization study with adjuvanted protein antigens in mice; type: in vivo
Experimental: A pilot immunization study was conducted using Compound A and SC12 adjuvanted protein antigens. The immunization experiments were performed with two recombinant proteins expressed in E. coli. One antigen was derived from the malaria parasite Plasmodium falciparum and the other one from Mycobacterium ulcerans, which cause the ulcerative skin disease Buruli ulcer.

[3] = Serum exposure after intravesical chronic treatment in mouse; conditions: intravesical, LLOQ 0.5 ng/ml
Experimental: Serum samples were taken at time points: day 0, 2 hours, day 1, 24 hours, and day 6, 2 hours.
Samples were evaporated and re-suspended in 70 microliters of acetonitrile/methanol 1:1.

[4] = tested on: 73 primary molecular targets (human recombinant receptor types and subtypes or membrane fraction from rodent tissue homogenates); test: Radioligand binding assay among 73 primary molecular targets; conditions: SC12 at 30 microM
human whole blood = test: Cytokine secretion in human whole blood assay (ELISA); type: cell-based; conditions: for IL-12p40 levels: all donors
Experimental: Before drawing the blood, the compounds were added to 96 well round bottom plates in a 10× diluted sample at 20 ul. The compounds were diluted in RPMI media without serum but with antibiotics. Antibiotics were added at a 10× concentration. After drawing the blood, the whole blood sample was gently mixed to obtain a homogeneous sample, and 180 ul was added to each well.
All compounds were setup in concentrations at 0-0.01-0.03-0.1-0.5-2.0-10.0 micromolar as the final concentration. Vehicle control was DMSO control, where we used the highest concentration used for the compounds. After addition of blood, all plates were gently agitated at 37° C. and 5% CO2 until harvest.
Concentrations of cytokines were determined by ELISA from R&D Systems. The results were analyzed in Graph Pad Prism in order to prepare dose-response curves, and for determination of EC50 values. FACS analysis was made by using Becton-Dickinson FACSDiva software and subsequently illustrated in Graph Pad Prism.

[5] = tested on: AY-27 rat bladder cancer cell-line; conditions: day 12
[6] = tested on: AY-27 rat bladder cancer cell-line; conditions: in vivo
[7] = Intravenous pharmacokinetics in the mouse; conditions: IV bolus 1 mg/kg; for Plasma concentration Mean ± S.D.: LLOQ: 5 ng/ml
Experimental: An IV bolus was administered into the caudal vein at a dose of 1 mg/kg in 5 ml. The compound weight was 2.08/10.04 ml. 24 mice were studied. Sampling was obtained by exsanguination under anesthesia, at 5, 15, 30, 60, 240, and 480 minutes, and at 24 hours. […] Animals were sacrificed using ethyl ether at the conclusion of the experiment.
Sample preparation: In a Sirocco filter plate, 100 microliters of plasma were added to 300 microliters of ACN/MeOH spiked with 5 microliters of IS (IV298 10 micrograms per ml) plus 10 microliters of 5% H3PO4. The plate was shaken for 10 minutes at 80 rpm and then filtered under vacuum for 5 minutes.
Analytical method: LC/MS/MS: Premiere XE, Eluent: water (A) MeOH (B) plus 0.1% HCOOH gradient. 15% B to 100% B from 0.1 to 0.5, then isocratic 100% B up to 1.5 minutes, flow 0.8 ml/min; Column Acquity UPLC BEH C18 1.7 microm 2.1×50 mm, injection volume of 5 microliters in a T column at 50° C. ESI positive, MRM, Extractor 5V; Capillary 3.5 kV; T source 115° C.; T desolv. 450° C.
Data analysis: Non-compartmental analysis WinNonlin 5.1; linear trapezoidal, uniform weight.

[8] = whole blood, 6 hours incubation

CCCCCCCCCCCC(=O)OCC(COP(=O)(O)OCCNC(=O)c1ccc(Cn2c(=O)[nH]c3c(N)nc(OCCOC)nc32)cc1)OC(=O)CCCCCCCCCCC (stereo not shown) [SC12]
CCR7 expression in mDCs (MFI, in words) [1]: less potent stimulator of CCR7 expression | CD80 expression in mDCs (MFI, in words) [1]: induced a noteworthy CD80 expression in all three donors | CD86 expression in mDCs (MFI, in words) [1]: induces a weak CD86 expression in donor 2 and 3, but not in donor 1 | local side effects ([2]; three s.c. immunizations with 10 nMol adjuvant): No local side effects | IgG responses against the target antigens ([2]; three s.c. immunizations, 20 micrograms antigen mixed with 10 nMol adjuvant, after the third immunization): developed IgG responses | SC12 levels in serum, Mean ± S.D. ([3]; Day 0, 2 hours): 0.5 ± 0.5 ng/mL | SC12 levels in serum, individual mice ([3]; Day 0, 2 hours): <LLOQ (2×) and 1.0 ng/ml and 0.5 ng/ml | SC12 levels in serum, Mean ± S.D. ([3]; Day 1, 24 hours): <LLOQ | SC12 levels in serum, individual mice ([3]; Day 1, 24 hours): <LLOQ | SC12 levels in serum, Mean ± S.D. ([3]; Day 6, 2 hours): <LLOQ | SC12 levels in serum, individual mice ([3]; Day 6, 2 hours): <LLOQ | binding to receptors associated with pain-related syndromes (e.g. adenosine and sodium channel) [4]: did not bind | induction of DC secreted cytokines (in words) (human whole blood; supernatant from whole blood cell assays): potent inducers | range of IL-6 secretion (human whole blood; whole blood, three donors): 4000 to 8000 pg/mL | ranges of IFN-alpha secreted (human whole blood; whole blood, three donors): 1000 to 2000 pg/mL | IL-10 production (in words) (human whole blood; [8]): no IL-10 production was seen | IL-12p40 levels (human whole blood; [8]): 8.000 to 12.000 pg/mL | IL-12p40 levels (human whole blood; whole blood, 24 hours incubation): 20.000 to 25.000 pg/mL | Range of weight of the rat bladders ([5]; 0.5 ml intravesical instillation (Imiquimod 0.1%, SC12 0.38%) on day 2 and 5): 0.0780-0.1422 grams | Tumor free (% of rats) ([5]; of 14 rats per group): 42.9% | Tumor free (number of rats) ([5]; of 14 rats per group): 6 | pT2 Tumor (% of rats) ([5]; of 14 rats per group): 50.0% | pT2 Tumor (number of rats) ([5]; of 14 rats per group): 7 | pTa Tumor (% of rats) ([5]; of 14 rats per group): 7.1% | pTa Tumor (number of rats) ([5]; of 14 rats per group): 1 | signs of toxicity (in words) [6]: No signs of toxicity | adverse behavioral effects [7]: No adverse behavioral effects | Cl ([7]; plasma): 77.7 mL/min/kg | Clast ([7]; plasma): 6 ng/mL | MRT ([7]; plasma): 32 min | T ½ ([7]; plasma): 130 min | Tlast ([7]; plasma): 120 min | Tmax ([7]; plasma): 5 min | Vss ([7]; plasma): 2.5 L/kg | Plasma concentration Mean ± S.D. ([7]; 240 min): <LLOQ | Plasma concentration Mean ± S.D. ([7]; 480 min): <LLOQ | Plasma concentration Mean ± S.D. ([7]; 1440 min): <LLOQ
